# Data reported in paper PMC9368227, “Investigation of Radiotracer Metabolic Stability In Vitro with CYP-Overexpressing Hepatoma Cell Lines” (Cells, 2022).
# Columns and labels:
# HepG2 CYP1A2 [1] = experiment: Competitive coincubation of [18F]1 with competitors, HepG2 CYP1A2; conditions: 1 h; competitor 1 or 10 µM
# Method: (§1) Radio thin-layer chromatography (radio-TLC) was carried out on reversed-phase TLC plates (ALUGRAM RP-18W/UV254 from Macherey-Nagel, Düren, Germany) with a mobile phase of 45% ACN in water containing 0.1% trifluoroacetic acid. The samples (2 µL) were spotted onto the TLC plate. The line of origin and the front line were labeled with 1/5 of the sample activity concentration. To track the Rf value of the intact radiotracer, each TLC was spotted with the intact tracer as reference in the middle. Detection of the activity signals was achieved after 10–30 min development on radioluminographic imaging plates (FUJIFILM, Tokyo, Japan) and subsequent readout with Fuji BAS 5000® or Amersham™ Typhoon™ from GE Healthcare (Uppsala, Sweden). The resulting chromatographic profile was analyzed and integrated with the help of AIDA Image Analysis Software (version 5.1). For data depiction, the fraction of each species (intact radiotracer, metabolite, [^18F]fluoride) was plotted.
# (§2) Incubations were conducted for up to 2 h in a 96-well plate in KHB with a total incubation volume of 50 µL and an ethanol concentration of 0.4%. For the incubation with radiotracers, an activity of 100–200 kBq/well at the start of the experiment was used.
# (§3) Our last interest within this study was to test if the tracer itself could function as an indicator for the conversion of other substrates acting via inhibition of or competition with the CYP enzymes. In this regard, alternative substrates were added to the incubation mixtures with [^18F]1. The investigated substrates covered testosterone, caffeine, progesterone, compound 3, tebufelone, and RWJ63556 [44] (10 µM for all substances). Furthermore, the influence of testosterone on the metabolic turnover of [^18F]1 was investigated over a concentration range of 1–50 µM.
# Figure 7 Coincubation of [^18F]1 and different competitors with (A) HepG2 CYP1A2 and (B) HepG2 CYP2C19. […] Each competitor/inhibitor was incubated with [^18F]1 for 1 h followed by radio-TLC analysis. Activity concentrations of 94–197 kBq/well (1.9–3.9 MBq/mL) were used at start of experiment, which correspond to a concentration of 120–125 nM. Statistical analysis performed with Dunnett’s multiple comparison (post hoc test) according to the intact tracer amount (* p < 0.05; *** p < 0.001; **** p < 0.0001; n = 4).
# [2] = Radiotracer incubation in buffer only (control, without any cell line), radio-TLC; type: in vitro ADME; conditions: reference incubation without any cell lines
# Method: HepG2 cells were cultured in DMEM GlutaMax (Gibco, Paisley, UK) with 10% fetal calf serum (FCS) and with selective antibiotics (penicillin/streptomycin for wildtype, Zeocin (InvivoGen, San Diego, CA, USA) for CYP1A2, and Blasticidin (Gibco, Carlsbad, CA, USA) for CYP2C19 and CYP3A4 cultures). As a negative control, cultures of CHO cultivated in Ham’s F-12 medium (Gibco) with 10% FCS and 2 mM glutamine were added for the radiotracer experiments. Cells were handled under a laminar flow hood (Thermo Scientific^TM Safe 2020, Langenselbold, Germany) and were split once or twice a week by trypsinization. Cell cultures were stored horizontally in a humidified incubator (Heracell240i) at 37 °C and 5% CO2. During the time of experimental work, the utilized cell lines were regularly checked for mycoplasma. Cells were seeded in duplicates into a 96-well plate (CellStar®) with a density of 3 × 10^5 cells/well and cultured until the next day at 37 °C and 5% CO2. Cell density was determined with a cell counter (CASY® Model TT from Schärfe System, Reutlingen, Germany). Before the addition of substrates, cells were washed twice with Krebs–Henseleit buffer (KHB). The HEPES-supplemented Krebs–Henseleit buffer (pH 7.4, KHB) was freshly prepared using HEPES (5.95 g/L), D-glucose (2.0 g/L), magnesium sulfate (0.141 g/L), potassium dihydrogenphosphate (0.16 g/L), potassium chloride (0.35 g/L), sodium chloride (6.9 g/L), calcium chloride dihydrate (0.373 g/L), and sodium bicarbonate (2.1 g/L), followed by adjustment to pH 7.4 with NaOH. […]
# (§4) Incubations with radiotracer compounds were conducted, on the one hand, with radioactive ^18F-labeled compounds alone (time dependency) and, on the other hand, in the presence of 50 µM nonradioactive reference (carrier addition). For the investigation of a time-dependent metabolite formation, 2 µL aliquots were withdrawn from the supernatant, directly spotted onto the TLC plate, and analyzed as described above. […]
# HepG2 CYP2C19 [3] = experiment: Radiotracer metabolic stability, CYP2C19-overexpressing HepG2 cells; type: in vitro ADME, human; conditions: radio-TLC
# Method: (§5) CYP-overexpressing human hepatocellular carcinoma cells (HepG2) were previously generated on the basis of subcloning human CYP1A2 [18], CYP2C19 [20], and CYP3A4 [21] cDNA into a lentiviral expression vector. The cDNA expression in the resulting vector was controlled by the human cytomegalovirus (CMV) promoter. The lentivirus expression vectors were used to produce recombinant lentivirus particles according to standard methods to infect HepG2 cells. Infected cells were selected with 3 µg/mL blasticidin for CYP2C19 and CYP3A4 and 500 µg/mL zeocin for CYP1A2 overexpression 48 h after infection. Within 3–4 weeks, antibiotic-resistant cell colonies were picked to obtain single cell-derived HepG2 clones. For more detailed information on the generation procedure of CYP-overexpressing HepG2 cells, see Steinbrecht et al..
# HepG2 cells were cultured in DMEM GlutaMax (Gibco, Paisley, UK) with 10% fetal calf serum (FCS) and with selective antibiotics (penicillin/streptomycin for wildtype, Zeocin (InvivoGen, San Diego, CA, USA) for CYP1A2, and Blasticidin (Gibco, Carlsbad, CA, USA) for CYP2C19 and CYP3A4 cultures). As a negative control, cultures of CHO cultivated in Ham’s F-12 medium (Gibco) with 10% FCS and 2 mM glutamine were added for the radiotracer experiments. Cells were handled under a laminar flow hood (Thermo Scientific^TM Safe 2020, Langenselbold, Germany) and were split once or twice a week by trypsinization. Cell cultures were stored horizontally in a humidified incubator (Heracell240i) at 37 °C and 5% CO2. During the time of experimental work, the utilized cell lines were regularly checked for mycoplasma. Cells were seeded in duplicates into a 96-well plate (CellStar®) with a density of 3 × 10^5 cells/well and cultured until the next day at 37 °C and 5% CO2. Cell density was determined with a cell counter (CASY® Model TT from Schärfe System, Reutlingen, Germany). Before the addition of substrates, cells were washed twice with Krebs–Henseleit buffer (KHB). The HEPES-supplemented Krebs–Henseleit buffer (pH 7.4, KHB) was freshly prepared using HEPES (5.95 g/L), D-glucose (2.0 g/L), magnesium sulfate (0.141 g/L), potassium dihydrogenphosphate (0.16 g/L), potassium chloride (0.35 g/L), sodium chloride (6.9 g/L), calcium chloride dihydrate (0.373 g/L), and sodium bicarbonate (2.1 g/L), followed by adjustment to pH 7.4 with NaOH. The utilized substances within this study were neither found (see Supplementary Materials, Figure S14) nor reported to be cytotoxic within the utilized concentration range and incubation duration.
# Incubations with radiotracer compounds were conducted, on the one hand, with radioactive ^18F-labeled compounds alone (time dependency) and, on the other hand, in the presence of 50 µM nonradioactive reference (carrier addition). For the investigation of a time-dependent metabolite formation, 2 µL aliquots were withdrawn from the supernatant, directly spotted onto the TLC plate, and analyzed as described above. The same procedure was performed for carrier-added samples.
# UPLC–MS analyses were performed to verify the degradation behavior of the test compounds and to gain insights into the identity of the formed metabolites. Using radiotracer incubation samples, 40 µL aliquots of the carrier-added incubations were withdrawn followed by addition of 160 µL of ACN and centrifugation (14,000 rpm (18,800–20,800× g), 4 °C, 5 min). Samples were frozen at −20 °C, and activity was allowed to decay before further mass-spectrometric analyses. Additionally, incubations with the nonradioactive references were carried out with 100 nM or 50 µM (according to the carrier-added samples) and analyzed. UPLC–MS/MS was performed using System 2 (55% isocratic elution for quantification of intact compound, or 25–75% gradient for nonradioactive metabolite analysis). The MRM mode was optimized with a solution of respective reference compounds diluted in eluent. […]
# HepG2 CYP1A2 [4] = experiment: Radiotracer metabolic stability, CYP1A2-overexpressing HepG2 cells; type: in vitro ADME, human; conditions: HepG2 CYP1A2, up to 2 h; radio-TLC
# Method: as §5
# HepG2 cells were cultured in DMEM GlutaMax (Gibco, Paisley, UK) with 10% fetal calf serum (FCS) and with selective antibiotics (penicillin/streptomycin for wildtype, Zeocin (InvivoGen, San Diego, CA, USA) for CYP1A2, and Blasticidin (Gibco, Carlsbad, CA, USA) for CYP2C19 and CYP3A4 cultures). […] Cell density was determined with a cell counter (CASY® Model TT from Schärfe System, Reutlingen, Germany). […]
# as §4
# UPLC–MS analyses were performed to verify the degradation behavior of the test compounds and to gain insights into the identity of the formed metabolites. […] Additionally, incubations with the nonradioactive references were carried out with 100 nM or 50 µM (according to the carrier-added samples) and analyzed. UPLC–MS/MS was performed using System 2 (55% isocratic elution for quantification of intact compound, or 25–75% gradient for nonradioactive metabolite analysis). […]
# HepG2 CYP3A4 = experiment: Radiotracer metabolic stability, CYP3A4-overexpressing HepG2 cells; type: in vitro ADME, human; conditions: HepG2 CYP3A4; radio-TLC
# Method: as §5
# HepG2 cells were cultured in DMEM GlutaMax (Gibco, Paisley, UK) with 10% fetal calf serum (FCS) and with selective antibiotics (penicillin/streptomycin for wildtype, Zeocin (InvivoGen, San Diego, CA, USA) for CYP1A2, and Blasticidin (Gibco, Carlsbad, CA, USA) for CYP2C19 and CYP3A4 cultures). As a negative control, cultures of CHO cultivated in Ham’s F-12 medium (Gibco) with 10% FCS and 2 mM glutamine were added for the radiotracer experiments. […] Cell density was determined with a cell counter (CASY® Model TT from Schärfe System, Reutlingen, Germany). […]
# HepG2 cells = experiment: Testosterone control incubation (conversion to androstenedione), LC-MS/MS; conditions: 2.5 µM testosterone; within 2 h; 3 × 10^5 cells/well in 96-well plate
# Method: Testosterone (SIGMA-ALDRICH, Taufkirchen, Germany) was dissolved in pure ethanol. Control incubations with testosterone were carried out for 2 h with 2.5 µM testosterone, 0.05% ethanol, and a total volume of 150 µL in the cavities of a 96-well plate. The supernatant was prepared and analyzed by UPLC–MS/MS (System 2; 45% isocratic elution). Testosterone was monitored at transitions for [M + H]^+ 289.24 > 97.08 and 289.24 > 109.05 with cone voltage 52 V and collision energy 20 V, while the CYP-mediated metabolite androstenedione was monitored at transitions for [M + H]^+ 287.22 > 97.08 (collision energy 18 V) and 287.22 > 109.05 (collision energy 20 V) with a cone voltage of 50 V each.
# HepG2 CYP2C19 [5] = experiment: Competitive coincubation of [18F]1 with competitors, HepG2 CYP2C19; conditions: 1 h, competitor 10 µM
# Method: as §1, §2, §3
# Figure 7 Coincubation of [^18F]1 and different competitors with (A) HepG2 CYP1A2 and (B) HepG2 CYP2C19. […] Each competitor/inhibitor was incubated with [^18F]1 for 1 h followed by radio-TLC analysis. […]
smiles,measurement,setting,value
Cc1ccc(-c2cc(CCF)nn2-c2ccc(S(C)(=O)=O)cc2)cc1 [compound 3],Effect of coincubation on metabolic profile / intact [18F]1 (in words),HepG2 CYP1A2 [1],slightly increased the intact tracer amount
"[2H]C([2H])([18F])c1cc(-c2ccc(C)cc2)n(-c2ccc(S(C)(=O)=O)cc2)n1 [[^18F]2, 3-([D2, ^18F]fluoromethyl)-1-[4-(methylsulfonyl)phenyl]-5-(p-tolyl)-1H-pyrazole]",Defluorination without additional enzymes in the incubation buffer (KHB),[2],to a minor extent
"Cc1ccc(-c2cc(CC[18F])nn2-c2ccc(S(C)(=O)=O)cc2)cc1 [[^18F]3, 3-([^18F]fluoroethyl)-1-[4-(methylsulfonyl)phenyl]-5-(p-tolyl)-1H-pyrazole]",Defluorination,HepG2 CYP2C19 [3]; 1 h incubation,only noted during incubation with HepG2 CYP2C19
same,Metabolic turnover / stability of radiotracer (in words),"HepG2 CYP2C19 [3]; HepG2 CYP2C19, up to 2 h",pronounced slower degradation
same,Metabolic turnover / stability of radiotracer (in words),HepG2 CYP1A2 [4],pronounced slower degradation
same,Summarized percentage of metabolites,HepG2 CYP3A4,below 3%
Cn1c(=O)c2c(ncn2C)n(C)c1=O [caffeine],Effect of coincubation on metabolic profile / intact [18F]1 (in words),HepG2 CYP1A2 [1],no change in the metabolic profile
C[C@]12CC[C@H]3[C@@H](CCC4=CC(=O)CC[C@@]43C)[C@@H]1CC[C@@H]2O [testosterone],Testosterone consumed,HepG2 cells,more than 50%
same,Effect of coincubation on metabolic profile / intact [18F]1 (in words),HepG2 CYP1A2 [1],no change in the metabolic profile
same,Effect of coincubation on intact [18F]1 amount (in words),HepG2 CYP2C19 [5]; testosterone 1–50 µM,slight increase in the amount of intact radiotracer
CC(=O)[C@H]1CC[C@H]2[C@@H]3CCC4=CC(=O)CC[C@]4(C)[C@H]3CC[C@]12C [progesterone],Effect of coincubation on metabolic profile / intact [18F]1 (in words),HepG2 CYP1A2 [1],no change in the metabolic profile
same,Increase of intact tracer [18F]1 versus incubation without additional substances,HepG2 CYP2C19 [5],twofold
